Reference: patent US20240390377A1, “COMPOSITION FOR THE PREVENTION OR TREATMENT OF NEURODEGENERATIVE OR MOTOR NEURON DISEASES COMPRISING HALOFUGINONE AS AN ACTIVE INGREDIENT” (CURAMYS CO., LTD., priority 2022, published 2024)

Columns and labels:
[1] = test system: G93A mutant SOD1 transgenic mice; test: Immunohistochemical analysis of knee joint synovial cavity in ALS animal model; type: in vivo, mouse
Procedure: (§1) As a control group, non-transgenic mice were injected intraperitoneally (i.p.) with vehicle (DMSO) in the same manner for the same period of time.
Specifically, the mice of Example 6 above were perfused with 4% paraformaldehyde (PFA) on 90 and 120 days of age, and the lumbar spinal cord and knee joints were separated. After fixation in 4% PFA for 24 hours, the knee joints were rinsed in running tap water for 24 hours and then incubated at 4° C. with continuous shaking in decalcifying solution (Calci-Clear, HS-104, National Diagnostics). The decalcification solution was replaced daily with fresh solution until the bones were easily penetrated with a needle, indicating completion of the decalcification process. Subsequently, the decalcified knee joints were rinsed in running tap water for 24 hours, and the spinal cord and knee joint samples were treated with 30% sucrose until they sank, followed by freeze protection, followed by successive cuts (14 μm). The lumbar spinal cord and knee joint tissue sections were washed three times with PBS and permeabilized with 0.5% Triton X-100 for 5 minutes. Subsequently, they were blocked with 5% bovine serum albumin (BSA) in 0.3% PBS-T at room temperature for 1 hour. The knee joint tissue sections were incubated with anti-TGF-β1 antibody (1:200; Santa Cruz, cat #sc130348), anti-α-SMA antibody (1:200; Abcam, cat #ab7817), anti-MyoD antibody (1:200; Santa Cruz, cat #sc377460), and anti-Collagen I antibody (1:200; Abcam, cat #ab21286) each, while the lumbar spinal cord sections were incubated with anti-GFAP antibody (1:200; Dako, cat #Z0334), anti-Iba1 antibody (1:200; Wako, cat #016)-20001), anti-TGF-β1 antibody (1:200; Santa Cruz, cat #sc130348), anti-TGF-β1 antibody (1:200; Abcam, cat #ab92486), and anti-IL-1β antibody (1:200; R&D Systems, cat #AF-401-NA) at 4° C. for an additional 24 hours. After washing the sections three times with PBS, they were incubated with Alexa Fluor secondary antibodies in a dark chamber at room temperature for 1 hour. […] Furthermore, analysis was performed using Leica Application Suite X software (Leica Microsystems).
Specifically, halofuginone was administered to G93A mutant SOD1 mice from the early onset of ALS (day 73) in the same manner as described in Example 6. Immunohistochemical analysis was performed on the knee joints of early-stage female and male mice (90 days old, FIGS. 7a and 7b) and late-stage female and male mice (120 days old, FIGS. 7c and 7d) in the same manner as described in <Example 8>.

[2] = test system: G93A mutant SOD1 transgenic mice; test: Western blot analysis of knee joint tissue in ALS animal model; type: in vivo, mouse; details: 120 days old; compared to DMSO non-TG mice
Procedure: as §1
Specifically, the lumbar spinal cord or knee joint of the mouse of Example 6 was separated and immediately frozen at −80° C. Each lumbar spinal cord or knee joint was then homogenized and chemically treated to obtain cells. The chemically treated cells, the C2C12 cells of Example 1 or the fibroblasts of Example 5 were dissolved in a RIPA buffer (Thermo, MA, USA) with a protease inhibitor and a phosphatase inhibitor (Roche, IN, USA) and incubated on ice for 30 minutes. After centrifugation of the lysate at 13,000 rpm at 4° C. for 20 min, insoluble substances were removed. Protein concentrations were measured by BCA analysis (Pierce Biotechnology). Equal volumes of cell lysate were loaded onto SDS-PAGE gels for electrophoresis, and transferred onto nitrocellulose membranes (Amersham Protran 0.2 um NC, Amersham Pharmacia Biotech, Piscataway, NJ, USA). The membranes were then blocked with 5% (w/v) skimmilk in 1×TBST for 1 h at room temperature. After blocking, anti-RB-actin antibody (1:5000; Santa Cruz, cat #sc47778), anti-Smad2 antibody (1:1000; Cell Signaling, cat #5339), anti-p-Smad2 antibody (1:1000; Cell Signaling, cat #3108), anti-TGF-β1 antibody (1:1000; Santa Cruz, cat #sc130348), anti-α-SMA antibody (1:10000; abcam cat #ab7817), anti-MyoD antibody (1:1000; cat #sc377460), anti-collagen|antibody (1:1000; abcam cat #ab21286), anti-cleaved caspase-3 antibody (1:1000; Cell Signaling, cat #9661), anti-bax antibody (1:500; Santa Cruz, cat #sc493), anti-bcl2 antibody (1:1000; Novus Biologics, cat #NB100-56098), anti-ChAT antibody (1:1000; Millipore, cat #AB144) were treated and incubated overnight at 4° C. Subsequently, membranes were washed several times with 1×TBST and incubated with horseradish peroxidase-conjugated secondary antibodies (anti-mouse, rabbit or goat, 1:5000; GE Healthcare) in blocking buffer for 1 h at room temperature (RT). The membranes were then washed, briefly incubated with the SuperSignal West Pico Plus Chemical Substructure (Pierce Biotechnology) according to the manufacturer's procedure, and quantified with an image analyzer (Amersham Pharmacia Biotech, Piscataway, NJ, USA). β-actin was used as an internal control group. The concentration measurement of protein intensity was quantified using Image J (National Institutes of Health).
Specifically, halofuginone was administered to G93A mutant SOD1 mice in the same manner as described in Example 6, and ROM measurement of the knee joint was performed in the same manner as described in Example 10 (FIG. 8a). In addition, Western blot analysis was performed in the same manner as the method described in Example 12 using knee joint tissue to confirm p-Smad2, Smad2, TGF-β1, α-SMA, MyoD, and collagen I protein expression (FIG. 8b).

[3] = 90 days old (early stage), females and males, vs DMSO TG group
[4] = 120 days old (late stage), vs DMSO TG group

Question: Which results are given for `O=C(C[C@H]1NCCC[C@@H]1O)Cn1cnc2cc(Br)c(Cl)cc2c1=O` (racemic) [halofuginone]?
Answer: increase in TGF-β in knee joint synovial cavity ([1]; 90 days old (early stage), females and males, 250 μg/kg i.p.): suppressed; Col-I expression in knee joint synovial cavity [1, 3]: significantly lower; α-SMA expression in knee joint synovial cavity [1, 3]: significantly lower; Col-I in the synovial cavity [1, 4]: significantly lower; MyoD in the synovial cavity [1, 4]: higher; TGF-β1 in the synovial cavity [1, 4]: significantly lower; α-SMA in the synovial cavity [1, 4]: significantly lower; strength of TGF-β1, MyoD and Col-1 in the synovial cavity ([1]; 120 days old, female Hal TG group vs DMSO non-TG group): not different; strength of MyoD in the synovial cavity ([1]; 120 days old, male Hal TG group vs DMSO non-TG group): slightly increased; Col-1 expression level in knee joint tissue [2]: rather reduced; MyoD expression level in knee joint tissue [2]: preserved similarly; TGF-β1 expression level in knee joint tissue [2]: preserved similarly; p-Smad2/Smad2 ratio in knee joint tissue [2]: preserved similarly; α-SMA expression level in knee joint tissue [2]: preserved similarly
